As usually defined, the EC50 is the concentration at which the effect is half-maximal.

For the test, the system named is RKO p21 uninduced (proliferating) colon adenocarcinoma cells. Briefly: Alamar Blue cell viability assay, RKO p21 uninduced (proliferating). It counts as cell-based. The note with it: Homo sapiens, Table B3, anti-proliferative/cytotoxic activity, 72 hours, read-out: −log EC50 RKO p21 uninduced (proliferating) (converted). The essentials: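 Viability read by Alamar Blue fluorescence (ex 544, em 590 nm), normalised to untreated wells, after 72 h, 37° C, 5% CO2 compound exposure in triplicate. Cells were uninduced (no Ponasterone A), proliferating RKO colon carcinoma p27 or p21 subclones in DMEM with 10% FCS; values are −log EC50 (mol/l).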
A general note: Alamar Blue is a resazurin reagent that responds to reducing activity.
As for `CNCCN1C(=O)N2[C@H](c3cccc(O)c3)c3[nH]c4cc(F)c(OC)cc4c3C[C@@]2(C)C1=O` (racemic) [Example 248, (3aSR,10RS)-7-Fluoro-10-(3-hydroxy-phenyl)-6-methoxy-3a-methyl-2-(2-methylamino-ethyl)-3a,4,9,10-tetrahydro-2,9,10a-triaza-cyclopenta[b]fluorene-1,3-dione], the concentration giving a half-maximal response (EC50) was 39.8 to 251 nM. In the case of `CCOc1ccc2[nH]c3c(c2c1)C[C@@]1(C)C(=O)N(CCCN(C)CC)C(=O)N1[C@@H]3c1cccc(O)c1` (racemic) [Example 192, (3aSR,10RS)-6-Ethoxy-2-[3-(ethyl-methyl-amino)-propyl]-10-(3-hydroxy-phenyl)-3a-methyl-3a,4,9,10-tetrahydro-2,9,10a-triaza-cyclopenta[b]fluorene-1,3-dione], the EC50 is 39.8 to 251 nM. In the case of `CCN(CCCN1C(=O)N2[C@H](c3cccc(O)c3)c3[nH]c4ccc(OC(F)F)cc4c3C[C@@]2(C)C1=O)CCOC` (racemic) [Example 178, (3aSR,10RS)-6-(1,1-Difluoro-methoxy)-2-{3-[ethyl-(2-methoxy-ethyl)-amino]-propyl}-10-(3-hydroxy-phenyl)-3a-methyl-3a,4,9,10-tetrahydro-2,9,10a-triaza-cyclopenta[b]fluorene-1,3-dione] it was not above 39.8 nM; in that of `CCOc1ccc2[nH]c3c(c2c1)C[C@@]1(C)C(=O)N(CCCN(CC)CCO)C(=O)N1[C@@H]3c1cccc(O)c1` (racemic) [Example 194, (3aSR,10RS)-6-Ethoxy-2-{3-[ethyl-(2-hydroxy-ethyl)-amino]-propyl}-10-(3-hydroxy-phenyl)-3a-methyl-3a,4,9,10-tetrahydro-2,9,10a-triaza-cyclopenta[b]fluorene-1,3-dione], 39.8 to 251 nM; in that of `CCN(CCO)CCCN1C(=O)N2[C@H](c3cccc(O)c3)c3[nH]c4ccc(OC)cc4c3C[C@@]2(C)C1=O` [Example 543, (3aS,10R)-2-{3-[Ethyl-(2-hydroxy-ethyl)-amino]-propyl}-10-(3-hydroxy-phenyl)-6-methoxy-3a-methyl-3a,4,9,10-tetrahydro-2,9,10a-triaza-cyclopenta[b]fluorene-1,3-dione], not above 39.8 nM.

Consider `CN1CCN(CCN2C(=O)N3[C@H](c4cccc(O)c4)c4[nH]c5ccc(Br)cc5c4C[C@@]3(C)C2=O)CC1` (racemic) [Example 386, (3aSR,10RS)-6-Bromo-10-(3-hydroxy-phenyl)-3a-methyl-2-[2-(4-methyl-piperazin-1-yl)-ethyl]-3a,4,9,10-tetrahydro-2,9,10a-triaza-cyclopenta[b]fluorene-1,3-dione], for which the EC50 is not above 39.8 nM. In the case of `CCOc1ccc2[nH]c3c(c2c1)C[C@@]1(C)C(=O)N(CCCN2CCCC2)C(=O)N1[C@@H]3c1cccc(O)c1` (racemic) [Example 221, (3aSR,10RS)-6-Ethoxy-10-(3-hydroxy-phenyl)-3a-methyl-2-(3-pyrrolidin-1-yl-propyl)-3a,4,9,10-tetrahydro-2,9,10a-triaza-cyclopenta[b]fluorene-1,3-dione] it was 39.8 to 251 nM; in that of `COc1cc2c3c([nH]c2cc1F)[C@@H](c1cccc(O)c1)N1C(=O)N(CCNC(C)(C)C)C(=O)[C@]1(C)C3` (racemic) [Example 256, (3aSR,10RS)-2-(2-tert-Butylamino-ethyl)-7-fluoro-10-(3-hydroxy-phenyl)-6-methoxy-3a-methyl-3a,4,9,10-tetrahydro-2,9,10a-triaza-cyclopenta[b]fluorene-1,3-dione], not above 39.8 nM.

Turning to `C=CCN(C)CCN1C(=O)N2[C@H](c3cccc(O)c3)c3[nH]c4ccc(Br)cc4c3C[C@@]2(C)C1=O` (racemic) [Example 381, (3aSR,10RS)-2-[2-(Allyl-methyl-amino)-ethyl]-6-bromo-10-(3-hydroxy-phenyl)-3a-methyl-3a,4,9,10-tetrahydro-2,9,10a-triaza-cyclopenta[b]fluorene-1,3-dione], the EC50 was 39.8 to 251 nM. In the case of `CCNCCCN1C(=O)N2[C@H](c3cccc(O)c3)c3[nH]c4cc(F)c(OC)cc4c3C[C@@]2(C)C1=O` (racemic) [Example 330, (3aSR,10RS)-2-(3-Ethylamino-propyl)-7-fluoro-10-(3-hydroxy-phenyl)-6-methoxy-3a-methyl-3a,4,9,10-tetrahydro-2,9,10a-triaza-cyclopenta[b]fluorene-1,3-dione] it was 39.8 to 251 nM. Regarding `CNCCN1C(=O)N2[C@H](c3cccc(O)c3)c3[nH]c4cc(F)c(Cl)cc4c3C[C@@]2(C)C1=O` (racemic) [Example 337, (3aSR,10RS)-6-Chloro-7-fluoro-10-(3-hydroxy-phenyl)-3a-methyl-2-(2-methylamino-ethyl)-3a,4,9,10-tetrahydro-2,9,10a-triaza-cyclopenta[b]fluorene-1,3-dione], the EC50 was not above 39.8 nM. To `CNCCCN1C(=O)N2[C@H](c3cccc(O)c3)c3[nH]c4ccc(Br)cc4c3C[C@@]2(C)C1=O` (racemic) [Example 211, (3aSR,10RS)-6-Bromo-10-(3-hydroyx-phenyl)-3a-methyl-2-(3-methylamino-propyl)-3a,4,9,10-tetrahydro-2,9,10a-triaza-cyclopenta[b]fluorene-1,3-dione] belongs not above 39.8 nM; to `COc1cc2c3c([nH]c2cc1F)[C@@H](c1cccc(O)c1)N1C(=O)N(CCCN(C)C)C(=O)[C@]1(C)C3` (racemic) [Example 310, (3aSR,10RS)-2-(3-Dimethylamino-propyl)-7-fluoro-10-(3-hydroxy-phenyl)-6-methoxy-3a-methyl-3a,4,9,10-tetrahydro-2,9,10a-triaza-cyclopenta[b]fluorene-1,3-dione], 39.8 to 251 nM. In the case of `COc1cc2c3c([nH]c2cc1F)[C@@H](c1cccc(O)c1)N1C(=O)N(CCN2CCC(C)CC2)C(=O)[C@]1(C)C3` (racemic) [Example 264, (3aSR,10RS)-7-Fluoro-10-(3-hydroxy-phenyl)-6-methoxy-3a-methyl-2-[2-(4-methyl-piperidin-1-yl)-ethyl]-3a,4,9,10-tetrahydro-2,9,10a-triaza-cyclopenta[b]fluorene-1,3-dione] it was 39.8 to 251 nM.

Consider `COc1cc2c3c([nH]c2cc1F)[C@@H](c1cccc(O)c1)N1C(=O)N(CCCNCC(C)C)C(=O)[C@]1(C)C3` (racemic) [Example 332, (3aSR,10RS)-7-Fluoro-10-(3-hydroxy-phenyl)-2-(3-isobutylamino-propyl)-6-methoxy-3a-methyl-3a,4,9,10-tetrahydro-2,9,10a-triaza-cyclopenta[b]fluorene-1,3-dione], for which the EC50 is 39.8 to 251 nM.

As for `C=CCN(C)CCCN1C(=O)N2[C@H](c3cccc(O)c3)c3[nH]c4ccc(Cl)cc4c3C[C@@]2(C)C1=O` (racemic) [Example 169, (3aSR,10RS)-2-[3-(Allyl-methyl-amino)-propyl]-6-chloro-10-(3-hydroxy-phenyl)-3a-methyl-3a,4,9,10-tetrahydro-2,9,10a-triaza-cyclopenta[b]fluorene-1,3-dione], the EC50 is not above 39.8 nM. In the case of `CC(C)N(C)CCN1C(=O)N2[C@H](c3cccc(O)c3)c3[nH]c4cc(F)c(Cl)cc4c3C[C@@]2(C)C1=O` (racemic) [Example 352, (3aSR,10RS)-6-Chloro-7-fluoro-10-(3-hydroxy-phenyl)-2-[2-(isopropyl-methyl-amino)-ethyl]-3a-methyl-3a,4,9,10-tetrahydro-2,9,10a-triaza-cyclopenta[b]fluorene-1,3-dione] it was not above 39.8 nM; in that of `COc1ccc2[nH]c3c(c2c1)C[C@@]1(C)C(=O)N(CCCCl)C(=O)N1[C@@H]3c1cccc(O)c1` [Example 55a, (3aS,10R)-2-(3-Chloro-propyl)-10-(3-hydroxy-phenyl)-6-methoxy-3a-methyl-3a,4,9,10-tetrahydro-2,9,10a-triaza-cyclopenta[b]fluorene-1,3-dione], 39.8 to 251 nM; in that of `CCN(CCCN1C(=O)N2[C@H](c3cccc(O)c3)c3[nH]c4cc(F)c(OC)cc4c3C[C@@]2(C)C1=O)CCOC` (racemic) [Example 316, (3aSR,10RS)-2-{3-[Ethyl-(2-methoxy-ethyl)-amino]-propyl}-7-fluoro-10-(3-hydroxy-phenyl)-6-methoxy-3a-methyl-3a,4,9,10-tetrahydro-2,9,10a-triaza-cyclopenta[b]fluorene-1,3-dione], 39.8 to 251 nM. Turning to `C[C@@]12Cc3c([nH]c4ccc(OC(F)F)cc34)[C@@H](c3cccc(O)c3)N1C(=O)N(CCN1CCOCC1)C2=O` (racemic) [Example 292, (3aSR,10RS)-6-(1,1-Difluoro-methoxy)-10-(3-hydroxy-phenyl)-3a-methyl-2-(2-morpholin-4-yl-ethyl)-3a,4,9,10-tetrahydro-2,9,10a-triaza-cyclopenta[b]fluorene-1,3-dione], the EC50 is 39.8 to 251 nM.

Take `C[C@@]12Cc3c([nH]c4ccc(OC(F)F)cc34)[C@@H](c3cccc(O)c3)N1C(=O)N(CCCNCC1CC1)C2=O` (racemic) [Example 200, (3aSR,10RS)-2-[3-(Cyclopropylmethyl-amino)-propyl]-6-(1,1-difluoro-methoxy)-10-(3-hydroxy-phenyl)-3a-methyl-3a,4,9,10-tetrahydro-2,9,10a-triaza-cyclopenta[b]fluorene-1,3-dione]: the EC50 was 39.8 to 251 nM. With `CCN(CC)CCN1C(=O)N2[C@H](c3cccc(O)c3)c3[nH]c4cc(F)c(OC)cc4c3C[C@@]2(C)C1=O` (racemic) [Example 258, (3aSR,10RS)-2-(2-Diethylamino-ethyl)-7-fluoro-10-(3-hydroxy-phenyl)-6-methoxy-3a-methyl-3a,4,9,10-tetrahydro-2,9,10a-triaza-cyclopenta[b]fluorene-1,3-dione], the EC50 was 39.8 to 251 nM. To `COc1ccc2[nH]c3c(c2c1)C[C@@]1(C)C(=O)N(CCCNCC(C)C)C(=O)N1[C@@H]3c1cccc(O)c1` [Example 534, (3aS,10R)-10-(3-Hydroxy-phenyl)-2-(3-isobutylamino-propyl)-6-methoxy-3a-methyl-3a,4,9,10-tetrahydro-2,9,10a-triaza-cyclopenta[b]fluorene-1,3-dione] belongs not above 39.8 nM.

The values are drawn from patent publication US8530493B2, “Indolopyridines as Eg5 kinesin modulators” (4SC AG, priority 2006, dated 2013).
